Assay results: publication PMC4378623, “Plant membrane assays with cytokinin receptors underpin the unique role of free cytokinin bases as biologically active ligands” (Journal of Experimental Botany, 2015)

Assays:
AHK2 [1] = biological target: T1, AHK2 (Arabidopsis thaliana, UniProt Q9C5U2); experiment: competition with [3H]tZ, plant microsomes; assay type: binding; conditions: pH 7.4, 0-4 °C
T1 sequence (Q9C5U2 1-1176): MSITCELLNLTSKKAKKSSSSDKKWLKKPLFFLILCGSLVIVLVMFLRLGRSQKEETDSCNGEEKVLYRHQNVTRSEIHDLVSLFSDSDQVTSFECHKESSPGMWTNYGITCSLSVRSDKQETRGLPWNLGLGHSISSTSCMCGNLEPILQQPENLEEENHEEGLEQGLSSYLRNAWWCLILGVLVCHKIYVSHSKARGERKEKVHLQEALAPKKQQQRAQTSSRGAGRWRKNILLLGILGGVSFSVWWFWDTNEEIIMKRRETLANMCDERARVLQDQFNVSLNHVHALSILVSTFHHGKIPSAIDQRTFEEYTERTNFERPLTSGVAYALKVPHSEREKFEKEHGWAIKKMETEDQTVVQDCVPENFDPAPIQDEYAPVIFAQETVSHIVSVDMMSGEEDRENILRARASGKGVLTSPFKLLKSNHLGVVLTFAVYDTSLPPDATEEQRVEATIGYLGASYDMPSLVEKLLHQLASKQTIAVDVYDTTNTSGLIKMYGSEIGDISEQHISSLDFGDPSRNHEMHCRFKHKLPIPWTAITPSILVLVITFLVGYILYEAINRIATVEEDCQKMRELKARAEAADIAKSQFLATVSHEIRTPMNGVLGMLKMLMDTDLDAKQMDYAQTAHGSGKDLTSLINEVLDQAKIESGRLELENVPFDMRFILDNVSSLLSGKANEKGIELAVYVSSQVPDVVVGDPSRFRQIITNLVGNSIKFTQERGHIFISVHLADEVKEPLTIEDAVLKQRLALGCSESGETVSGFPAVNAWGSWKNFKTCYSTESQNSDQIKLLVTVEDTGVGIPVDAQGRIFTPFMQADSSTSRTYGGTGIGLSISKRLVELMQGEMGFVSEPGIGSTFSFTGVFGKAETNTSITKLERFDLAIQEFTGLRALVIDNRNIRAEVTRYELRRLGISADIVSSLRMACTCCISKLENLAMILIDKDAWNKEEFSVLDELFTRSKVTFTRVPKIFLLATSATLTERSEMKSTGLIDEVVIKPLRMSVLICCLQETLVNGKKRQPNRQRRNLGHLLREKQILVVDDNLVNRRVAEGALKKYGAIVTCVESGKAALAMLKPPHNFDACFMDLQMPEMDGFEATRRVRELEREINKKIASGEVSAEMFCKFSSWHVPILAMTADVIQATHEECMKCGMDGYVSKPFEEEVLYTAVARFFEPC
Text: competition with [3H]tZ, plant microsomes on AHK2

AHK3 [2] = biological target: T2, AHK3 (Arabidopsis thaliana, UniProt Q9C5U1); experiment: competition with [3H]tZ, plant microsomes; assay type: binding; set-up: full-length cDNA in pB7FWG2-AHK3, C-terminal eGFP fusion, transiently expressed in Nicotiana benthamiana leaves, microsomes; conditions: pH 7.4, 0-4 °C
T2 sequence (Q9C5U1 1-1036): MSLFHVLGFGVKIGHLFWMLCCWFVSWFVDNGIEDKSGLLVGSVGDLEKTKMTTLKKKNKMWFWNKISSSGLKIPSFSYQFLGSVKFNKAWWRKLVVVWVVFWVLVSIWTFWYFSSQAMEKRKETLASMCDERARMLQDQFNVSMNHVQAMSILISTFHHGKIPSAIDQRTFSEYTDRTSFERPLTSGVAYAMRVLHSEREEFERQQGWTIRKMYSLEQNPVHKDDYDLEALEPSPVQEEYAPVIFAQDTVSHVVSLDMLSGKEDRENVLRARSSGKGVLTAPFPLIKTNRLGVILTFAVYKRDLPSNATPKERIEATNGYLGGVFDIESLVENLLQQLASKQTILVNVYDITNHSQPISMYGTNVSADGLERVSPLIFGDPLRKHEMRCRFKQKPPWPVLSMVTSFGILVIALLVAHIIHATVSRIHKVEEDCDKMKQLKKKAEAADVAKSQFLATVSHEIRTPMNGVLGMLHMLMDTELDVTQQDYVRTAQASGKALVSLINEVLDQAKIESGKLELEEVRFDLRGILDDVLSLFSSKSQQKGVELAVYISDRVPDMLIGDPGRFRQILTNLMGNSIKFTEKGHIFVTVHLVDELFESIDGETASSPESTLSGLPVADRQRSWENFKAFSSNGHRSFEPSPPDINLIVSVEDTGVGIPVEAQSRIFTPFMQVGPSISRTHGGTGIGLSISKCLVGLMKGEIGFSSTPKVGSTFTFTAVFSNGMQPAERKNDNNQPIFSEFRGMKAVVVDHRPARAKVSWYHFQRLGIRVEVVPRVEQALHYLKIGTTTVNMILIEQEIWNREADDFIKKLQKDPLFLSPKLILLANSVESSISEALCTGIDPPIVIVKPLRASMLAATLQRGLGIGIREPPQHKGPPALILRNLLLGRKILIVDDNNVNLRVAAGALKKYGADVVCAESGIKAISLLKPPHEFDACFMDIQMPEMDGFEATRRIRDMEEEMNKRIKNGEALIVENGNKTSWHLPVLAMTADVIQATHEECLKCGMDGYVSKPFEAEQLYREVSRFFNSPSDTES
Text: competition with [3H]tZ, plant microsomes on AHK3

ZmHK1 [3] = biological target: T3, ZmHK1 (Zea mays, UniProt Q9FRY7); experiment: competition with [3H]tZ, plant microsomes; assay type: binding; set-up: full-length coding region in pB7FWG2-ZmHK1, C-terminal eGFP fusion, transiently expressed in Nicotiana benthamiana leaves, microsomes; conditions: pH 7.4, 0-4 °C
T3 sequence (Q9FRY7 1-974): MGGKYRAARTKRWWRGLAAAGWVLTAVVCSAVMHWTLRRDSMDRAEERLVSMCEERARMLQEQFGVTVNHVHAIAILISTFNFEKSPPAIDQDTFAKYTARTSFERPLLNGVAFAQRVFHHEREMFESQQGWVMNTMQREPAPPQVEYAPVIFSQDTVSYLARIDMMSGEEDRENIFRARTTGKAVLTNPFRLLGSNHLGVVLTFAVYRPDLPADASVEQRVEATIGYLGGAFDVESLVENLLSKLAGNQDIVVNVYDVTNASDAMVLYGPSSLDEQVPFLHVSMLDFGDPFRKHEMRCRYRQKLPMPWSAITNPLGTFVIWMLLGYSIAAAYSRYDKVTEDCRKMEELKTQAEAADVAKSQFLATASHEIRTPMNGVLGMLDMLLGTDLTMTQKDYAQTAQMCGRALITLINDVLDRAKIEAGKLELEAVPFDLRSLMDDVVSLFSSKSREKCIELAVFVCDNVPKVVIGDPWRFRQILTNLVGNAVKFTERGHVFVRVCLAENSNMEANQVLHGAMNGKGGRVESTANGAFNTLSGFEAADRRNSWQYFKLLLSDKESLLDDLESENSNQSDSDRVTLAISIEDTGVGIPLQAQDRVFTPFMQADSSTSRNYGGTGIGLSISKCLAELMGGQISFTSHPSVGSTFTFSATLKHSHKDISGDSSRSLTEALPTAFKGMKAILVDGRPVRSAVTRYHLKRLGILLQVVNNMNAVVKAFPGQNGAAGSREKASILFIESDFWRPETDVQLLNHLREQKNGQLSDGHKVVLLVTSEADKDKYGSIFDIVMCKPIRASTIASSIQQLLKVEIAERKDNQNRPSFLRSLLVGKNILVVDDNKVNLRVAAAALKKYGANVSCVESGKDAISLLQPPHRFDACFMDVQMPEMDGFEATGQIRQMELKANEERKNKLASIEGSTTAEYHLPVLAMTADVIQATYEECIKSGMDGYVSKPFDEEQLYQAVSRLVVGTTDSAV

AHK3 [4] = biological target: T2, AHK3; experiment: biochemical
Text: [3H]tZ saturation binding to plant microsomes, Scatchard on AHK3

AHK2 [5] = biological target: T1, AHK2; experiment: biochemical
Text: [3H]tZ saturation binding to plant microsomes, Scatchard on AHK2

ZmHK1 [6] = biological target: T3, ZmHK1; experiment: biochemical
Text: [3H]tZ saturation binding to plant microsomes, Scatchard on ZmHK1

AHK4 = AHK4 (Arabidopsis thaliana, UniProt Q9C5U0); experiment: biochemical
AHK4, sequence (Q9C5U0 whole entry): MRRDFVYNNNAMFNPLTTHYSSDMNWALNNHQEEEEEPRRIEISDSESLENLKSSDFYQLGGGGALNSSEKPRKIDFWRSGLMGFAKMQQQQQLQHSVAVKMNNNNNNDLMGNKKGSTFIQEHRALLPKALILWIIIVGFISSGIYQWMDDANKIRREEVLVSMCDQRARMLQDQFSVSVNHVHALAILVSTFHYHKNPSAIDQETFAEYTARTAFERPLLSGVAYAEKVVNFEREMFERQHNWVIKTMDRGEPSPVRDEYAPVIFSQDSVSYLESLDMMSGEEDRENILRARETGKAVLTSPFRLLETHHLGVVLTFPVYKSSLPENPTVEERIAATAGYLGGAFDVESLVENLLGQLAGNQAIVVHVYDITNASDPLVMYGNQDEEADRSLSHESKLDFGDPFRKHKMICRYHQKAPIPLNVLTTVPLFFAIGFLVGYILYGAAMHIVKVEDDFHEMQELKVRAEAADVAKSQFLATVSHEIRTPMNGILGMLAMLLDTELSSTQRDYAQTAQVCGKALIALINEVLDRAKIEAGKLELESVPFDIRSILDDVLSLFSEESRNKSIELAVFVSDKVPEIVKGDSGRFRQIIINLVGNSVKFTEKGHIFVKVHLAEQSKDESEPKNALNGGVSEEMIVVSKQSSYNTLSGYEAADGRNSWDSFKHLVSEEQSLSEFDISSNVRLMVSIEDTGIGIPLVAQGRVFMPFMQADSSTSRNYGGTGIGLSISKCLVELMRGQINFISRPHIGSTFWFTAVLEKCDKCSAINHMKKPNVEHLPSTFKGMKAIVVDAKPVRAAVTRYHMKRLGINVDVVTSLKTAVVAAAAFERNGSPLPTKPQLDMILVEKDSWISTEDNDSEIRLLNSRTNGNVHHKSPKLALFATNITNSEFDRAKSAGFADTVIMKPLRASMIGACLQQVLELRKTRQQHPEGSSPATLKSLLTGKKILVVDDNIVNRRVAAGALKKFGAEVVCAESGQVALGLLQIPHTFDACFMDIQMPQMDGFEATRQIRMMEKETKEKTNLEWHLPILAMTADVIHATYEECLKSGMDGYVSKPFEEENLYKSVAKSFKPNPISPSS

| Compound | Kd (AHK2 [1]) [nM] | Kd (AHK3 [2]) [nM] | Kd (ZmHK1 [3]) [nM] | Kd (AHK3 [4]) [nM] | Kd (AHK2 [5]) [nM] | Kd (ZmHK1 [6]) [nM] | Kd (AHK4) [nM] |
| --- | --- | --- | --- | --- | --- | --- | --- |
| CC(C)=CCNc1ncnc2nc[nH]c12 [iP, isopentenyladenine] | 1.42 ± 0.52 | 42 ± 13.5 | 0.61 ± 0.27 |  |  |  |  |
| C[C@H](CO)CCNc1ncnc2nc[nH]c12 [DZ, dihydrozeatin] | 161 ± 55 | 33.1 ± 6.2 | 128 ± 47 |  |  |  |  |
| C/C(=C\CNc1ncnc2[nH]cnc12)CO [tZ, trans-zeatin] |  |  |  | 4.26 ± 1.69 | 1.93 ± 0.26 | 7.97 ± 1.96 | 2 to 8 |
| Nc1ncnc2nc[nH]c12 [Ade, adenine] |  | > 10000 |  |  |  |  |  |
